The target of series [1] is T1, GABAA receptors (picrotoxin binding site).
T1 construct: other: duplicate experiments performed in triplicate; ± SEM; other: Hill coefficient
In words: [35S]-TBPS displacement (non-competitive displacement from the picrotoxin binding site). The settings on record: duplicate experiments performed in triplicate; ± SEM; read-out: Inhibition of [35S]-TBPS binding, IC50. Here is the method:
(§1) The IC50 values for the compounds of Scheme 1 (i.e., Compounds 1 and 2) as non-competitive displacers of [^35S]-TBPS from the picrotoxin binding site on GABAA receptors are reported in Table 1.
(§2) Results presented are from duplicate experiments performed in triplicate. Error limits are calculated as standard error of the mean. Methods used are known in the art (see, e.g., E. Stastna, et al., Neurosteroid Analogues. 16. A New Explanation for the Lack of Anesthetic Effects in Δ^16-Alphaxalone and Identification of a Δ^17(20) Analogue with Potent Anesthetic Activity, J. Med. Chem., 54(11), pp. 3926-34 (2011)).

The target of series [2] is T2, rat α1β2γ2L type GABAA receptors expressed in Xenopus laevis oocytes (Rattus norvegicus, UniProt P62813+P63138).
T2 construct: expressed in transfected cells; host or cells: Xenopus laevis oocytes
In words: Oocyte electrophysiology: potentiation of chloride currents mediated by 2 μM GABA, and direct gating. It counts as cell-based. The settings on record: ± SEM, N≥4; for Ratio of currents measured in the presence/absence of added compound, 0.1 μM: 0.1 μM compound; for Ratio of currents measured in the presence/absence of added compound, 0.1 μM / Ratio of currents measured in the presence/absence of added compound, 1 μM / Ratio of currents measured in the presence/absence of added compound, 10 μM: 2 μM GABA; for Ratio of currents measured in the presence/absence of added compound, 1 μM: 1 μM compound; for Ratio of currents measured in the presence/absence of added compound, 10 μM: 10 μM compound; for (gating) 10 μM: ratio of compound only current/2 μM GABA current: direct current gated by 10 μM compound in the absence of GABA. Here is the method:
The compounds of the present disclosure were evaluated for the ability to potentiate chloride currents mediated by 2 μM GABA at rat α1β2γ2L type GABAA receptors expressed in Xenopus laevis oocytes and the results are shown in Table 2.
The potentiation of 2 μM GABA-mediated chloride currents at rat α1β2γ2-type GABAA receptors expressed in frog oocytes by different concentrations of Compound 1, is illustrated by the curves in FIG. 2, as well. ^aThe GABA concentration used for the control response was 2 μM. Each compound was evaluated on at least four different oocytes at the concentrations indicated, and the results reported are the ratio of currents measured in the presence/absence of added compound. Gating represents direct current gated by 10 μM compound in the absence of GABA, and this current is reported as the ratio of compound only current/2 μM GABA current. Error limits are calculated as standard error of the mean (N≥4). Methods used are known in the art (see, e.g., E. Stastna, et al., Neurosteroid Analogues. 16. A New Explanation for the Lack of Anesthetic Effects in Δ^16-Alphaxalone and Identification of a Δ^17(20) Analogue with Potent Anesthetic Activity, J. Med. Chem., 54(11), pp. 3926-34 (2011)).

Another series concerns tadpoles. The series can be described thus: Tadpole loss of righting reflex (LRR) and loss of swimming reflex (LSR). It counts as in vivo. The settings on record: ± SEM. The source says:
Table 3 discloses the anesthetic effects of the compounds of the present disclosure. In particular, the anesthetic effect of the compounds of the present disclosure on Loss of Righting Reflex (LRR) and Loss of Swimming Reflex (LSR).
A quantal dose-response curve for loss of righting reflect (LRR) and loss of swimming reflex (LSR) caused by Compound 1 in tadpoles, is illustrated in FIG. 3, as well. ^aMethods used are known in the art (see, e.g., E. Stastna, et al., Neurosteroid Analogues. 16. A New Explanation for the Lack of Anesthetic Effects in Δ^16-Alphaxalone and Identification of a Δ^17(20) Analogue with Potent Anesthetic Activity, J. Med. Chem., 54(11), pp. 3926-34 (2011)). Error limits are calculated as standard error of the mean (N=10 or more animals at each of five or more different concentrations).

Series [3] concerns GABAA receptors (picrotoxin binding site). In words: [35S]-TBPS displacement (non-competitive displacement from the picrotoxin binding site). The method, then:
as §1, §2

The test system of a further series is GABAA receptors. The settings on record: background statement; cited from earlier work.
Setting [4] is: loss of righting reflex, read-out: Tadpole LRR EC50.
Setting [5] is: loss of swimming reflex, read-out: Tadpole LSR EC50.
Setting [6] is: [35S]-TBPS displacement, hydrogenated Δ17(20) double bond.

Read-outs that look alike come from different tables or passages of the source.

T2 sequence (P62813 28-455): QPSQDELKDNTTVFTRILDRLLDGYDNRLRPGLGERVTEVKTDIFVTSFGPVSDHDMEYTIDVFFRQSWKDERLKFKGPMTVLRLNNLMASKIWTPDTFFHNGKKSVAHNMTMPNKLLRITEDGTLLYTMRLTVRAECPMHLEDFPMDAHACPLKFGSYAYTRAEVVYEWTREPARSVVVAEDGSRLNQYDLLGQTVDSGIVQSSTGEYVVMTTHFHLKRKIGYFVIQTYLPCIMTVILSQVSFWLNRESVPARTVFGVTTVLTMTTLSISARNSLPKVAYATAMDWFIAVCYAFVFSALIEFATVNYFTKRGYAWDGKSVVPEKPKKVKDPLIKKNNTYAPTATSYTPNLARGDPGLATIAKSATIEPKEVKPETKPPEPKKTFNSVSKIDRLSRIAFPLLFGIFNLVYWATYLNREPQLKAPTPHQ
T2 sequence (P63138 26-474): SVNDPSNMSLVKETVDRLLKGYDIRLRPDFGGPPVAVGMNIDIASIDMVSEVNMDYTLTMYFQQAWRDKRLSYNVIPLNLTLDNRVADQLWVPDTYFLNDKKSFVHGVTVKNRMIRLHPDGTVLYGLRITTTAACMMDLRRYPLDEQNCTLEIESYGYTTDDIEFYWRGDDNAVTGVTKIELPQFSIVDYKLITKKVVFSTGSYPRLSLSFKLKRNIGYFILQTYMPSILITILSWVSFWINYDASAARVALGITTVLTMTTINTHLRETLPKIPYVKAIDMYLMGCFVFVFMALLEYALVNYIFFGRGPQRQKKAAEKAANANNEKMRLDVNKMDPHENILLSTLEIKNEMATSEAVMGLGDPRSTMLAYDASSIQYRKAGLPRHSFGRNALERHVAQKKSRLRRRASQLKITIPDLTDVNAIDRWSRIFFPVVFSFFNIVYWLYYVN
T2 sequence (P18508 other isoform, or with tags, fused parts or gaps INS375LLRMFSFK, further chain): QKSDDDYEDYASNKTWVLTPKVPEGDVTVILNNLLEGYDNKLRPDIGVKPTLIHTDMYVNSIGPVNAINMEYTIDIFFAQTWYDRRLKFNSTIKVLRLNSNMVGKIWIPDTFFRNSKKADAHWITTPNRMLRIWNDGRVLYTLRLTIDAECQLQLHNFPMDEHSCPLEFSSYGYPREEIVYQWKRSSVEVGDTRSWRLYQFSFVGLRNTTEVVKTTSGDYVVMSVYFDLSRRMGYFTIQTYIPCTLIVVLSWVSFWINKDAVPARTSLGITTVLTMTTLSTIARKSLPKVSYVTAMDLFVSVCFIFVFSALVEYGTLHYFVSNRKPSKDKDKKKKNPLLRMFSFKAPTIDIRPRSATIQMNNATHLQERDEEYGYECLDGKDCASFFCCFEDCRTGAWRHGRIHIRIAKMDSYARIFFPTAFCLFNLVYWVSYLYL

As for `COC[C@]12CC[C@@H](O)C[C@@H]1CC[C@@H]1[C@@H]2CC[C@]2(C)/C(=C\C#N)CC[C@@H]12` [Compound 1, [3α,5α,17(20)Z]-19-methoxypregn-17(20)-ene-21-nitrile], the melting point lay in the range of 166 to 168 °C. Further, the IC50 in series [1] amounted to 0.042 ± 0.004 µM. In series [2], the “Ratio of currents measured in the presence/absence of added compound, 0.1 μM” value was determined as 2.88 ± 0.90; the “Ratio of currents measured in the presence/absence of added compound, 1 μM” value is 15.27 ± 2.58; the “Ratio of currents measured in the presence/absence of added compound, 10 μM” value was 45.80 ± 15.79; the “(gating) 10 μM: ratio of compound only current/2 μM GABA current” value is listed as 0.19 ± 0.08. For the same molecule, in the series with tadpoles (setting [4]), the concentration giving a half-maximal response (EC50) was 0.159 ± 0.025 µM. In the series with tadpoles (setting [5]), the half-maximal effective concentration (EC50) amounted to 0.97 ± 0.065 µM.

`COC[C@]12CC[C@@H](O)C[C@@H]1CC[C@@H]1[C@@H]2CC[C@]2(C)/C(=C/C#N)CC[C@@H]12` [Compound 2, [3α,5α,17(20)E]-19-methoxypregn-17(20)-ene-21-nitrile] registered a melting point of 185 to 188 °C. For the same molecule, in series [1], the IC50 worked out at 0.657 ± 0.114 µM. In addition, in series [2], the “Ratio of currents measured in the presence/absence of added compound, 0.1 μM” value is reported as 0.69 ± 0.11; the “Ratio of currents measured in the presence/absence of added compound, 1 μM” value was found to be 1.26 ± 0.22; the “Ratio of currents measured in the presence/absence of added compound, 10 μM” value worked out at 2.97 ± 0.33; the “(gating) 10 μM: ratio of compound only current/2 μM GABA current” value is listed as 0.31 ± 0.25. Also, the EC50 with tadpoles (setting [4]) was determined as 2.78 ± 0.56 µM. For the same molecule, the EC50 with tadpoles (setting [5]) was around 10 µM.

For the molecule `C[C@]12CC[C@@H](O)C[C@@H]1CC[C@H]1[C@@H]3CC[C@H](CC#N)[C@@]3(C)CC(=O)[C@@H]12` [Compound 5c], in series [3] (setting [6]), the “Fold decrease of IC50 value relative to Compound 6b” value is listed as “about twofold” and the “Fold increase of IC50 value relative to Compound 6a” value is listed as “about eight-fold”.

Regarding `C[C@]12CC[C@@H](O)C[C@@H]1CC[C@@H]1[C@@H]2C(=O)C[C@]2(C)/C(=C\C#N)CC[C@@H]12` [Compound 6a], in series [3] (Z isomer versus E isomer (Compound 6a versus Compound 6b)), the “Fold more potent at displacing [35S]-TBPS than the E isomer” value is listed as “about 17 fold”.

Regarding `CC(=O)C1=CC[C@H]2[C@@H]3CC[C@H]4C[C@H](O)CC[C@]4(C)[C@H]3C(=O)C[C@]12C` [Δ^16-alphaxalone], in the series with GABAA receptors, the “Allosteric activity at GABAA receptors, in contrast to alphaxalone” value is recorded as “greatly diminished allosteric activity”.

Source of the values: US10053487B2, “Neuroactive 19-alkoxy-17(20)-Z-vinylcyano-substituted steroids, prodrugs thereof, and methods of treatment using same” (priority 2012, dated 2018).
